Results on 29 molecules are retold here after ChEMBL document CHEMBL4482323, “Novel heterocyclic compound, method for preparing same, and pharmaceutical composition comprising same as active ingredient for preventing or treating cancer” (2017).

The structures appear in SMILES notation.

For test [1], the target named is SUMO-activating enzyme (Homo sapiens, UniProt Q9UBT2). The test is described as follows: Inhibition of SAE (unknown origin) using recombinant His-tagged human SUMO1 measured after 2 hrs by HTRF assay. Format: protein-complex assay. On the technique in general: Time-resolved FRET reads energy transfer from a long-lived donor to a nearby acceptor.
Sequence of SUMO-activating enzyme (Q9UBE0 whole entry): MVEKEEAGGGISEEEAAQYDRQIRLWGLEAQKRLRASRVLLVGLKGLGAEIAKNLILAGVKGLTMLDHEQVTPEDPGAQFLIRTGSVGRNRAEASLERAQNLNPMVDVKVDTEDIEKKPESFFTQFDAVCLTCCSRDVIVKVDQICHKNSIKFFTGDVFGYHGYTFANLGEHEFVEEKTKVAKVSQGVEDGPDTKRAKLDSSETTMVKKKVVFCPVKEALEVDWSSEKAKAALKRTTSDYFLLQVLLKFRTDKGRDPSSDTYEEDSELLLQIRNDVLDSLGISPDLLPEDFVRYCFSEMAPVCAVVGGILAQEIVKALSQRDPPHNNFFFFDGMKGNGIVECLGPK
Sequence of SUMO-activating enzyme (Q9UBT2 whole entry): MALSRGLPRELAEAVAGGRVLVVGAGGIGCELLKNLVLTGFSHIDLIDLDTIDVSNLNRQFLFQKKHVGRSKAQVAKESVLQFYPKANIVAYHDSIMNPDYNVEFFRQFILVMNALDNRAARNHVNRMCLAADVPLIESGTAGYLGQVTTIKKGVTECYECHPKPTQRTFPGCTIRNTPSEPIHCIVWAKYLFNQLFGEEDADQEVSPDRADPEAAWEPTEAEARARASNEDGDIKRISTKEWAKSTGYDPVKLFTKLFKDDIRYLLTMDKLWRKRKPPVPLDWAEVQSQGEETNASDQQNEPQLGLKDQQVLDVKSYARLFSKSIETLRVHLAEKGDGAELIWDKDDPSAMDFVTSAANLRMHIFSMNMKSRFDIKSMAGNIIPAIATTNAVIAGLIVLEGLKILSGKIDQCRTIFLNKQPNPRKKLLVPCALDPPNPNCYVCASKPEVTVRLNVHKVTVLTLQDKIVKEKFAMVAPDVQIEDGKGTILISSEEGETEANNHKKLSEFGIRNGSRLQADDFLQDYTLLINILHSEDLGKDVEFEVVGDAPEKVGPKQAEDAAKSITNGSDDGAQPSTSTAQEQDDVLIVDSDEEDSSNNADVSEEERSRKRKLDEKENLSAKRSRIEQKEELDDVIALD
Test [2] deals with T1, NEDD8 activating enzyme (Homo sapiens, UniProt Q8TBC4).
T1 sequence (Q8TBC4 whole entry): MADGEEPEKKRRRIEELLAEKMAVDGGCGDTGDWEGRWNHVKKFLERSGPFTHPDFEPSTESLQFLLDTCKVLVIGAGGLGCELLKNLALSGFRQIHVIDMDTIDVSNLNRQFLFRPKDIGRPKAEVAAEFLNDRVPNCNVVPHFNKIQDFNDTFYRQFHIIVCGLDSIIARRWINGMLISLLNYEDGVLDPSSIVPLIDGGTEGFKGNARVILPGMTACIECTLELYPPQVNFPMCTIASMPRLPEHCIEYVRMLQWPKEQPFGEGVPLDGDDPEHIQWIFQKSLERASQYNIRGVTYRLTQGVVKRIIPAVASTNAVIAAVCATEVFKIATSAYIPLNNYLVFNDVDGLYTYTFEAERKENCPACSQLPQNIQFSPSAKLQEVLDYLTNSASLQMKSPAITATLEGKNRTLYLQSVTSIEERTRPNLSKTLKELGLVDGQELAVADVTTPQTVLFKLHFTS
T1 sequence (Q13564 whole entry): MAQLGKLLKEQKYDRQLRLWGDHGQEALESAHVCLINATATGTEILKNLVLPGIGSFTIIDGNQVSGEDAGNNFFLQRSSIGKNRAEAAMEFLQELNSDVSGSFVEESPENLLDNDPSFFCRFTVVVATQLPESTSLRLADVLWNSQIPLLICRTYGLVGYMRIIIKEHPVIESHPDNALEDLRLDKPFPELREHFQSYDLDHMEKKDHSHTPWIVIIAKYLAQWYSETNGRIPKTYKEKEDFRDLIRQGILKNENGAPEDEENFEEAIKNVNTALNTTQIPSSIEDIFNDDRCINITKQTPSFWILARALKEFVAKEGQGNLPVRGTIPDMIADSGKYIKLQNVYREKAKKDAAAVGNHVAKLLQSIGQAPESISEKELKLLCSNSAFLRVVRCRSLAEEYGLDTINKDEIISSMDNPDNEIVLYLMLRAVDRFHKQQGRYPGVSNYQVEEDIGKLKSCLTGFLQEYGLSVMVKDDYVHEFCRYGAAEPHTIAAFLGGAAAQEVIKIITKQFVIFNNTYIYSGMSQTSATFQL
The test is described as follows: Inhibition of NAE (unknown origin) using GST-tagged Ubc12 and Flag-tagged Nedd8 measured after 2 hrs by TR-FRET assay. Format: protein-complex assay.

Test [3] has as its system HCT-116. The test is described as follows: Antiproliferative activity against human HCT116 cells after 48 hrs by CCK8 assay. The test is classed as functional. The note with it: HCT-116, 48 h, read-out: LD50 (the source's name). Background: Tetrazolium dyes change colour on reduction, which living cells bring about.
Test [4] relates to THP-1. The test is described as follows: Antiproliferative activity against human THP1 cells after 48 hrs by CCK8 assay. Format: functional. The note with it: THP-1, 48 h, read-out: LD50 (the source's name).

For orientation: IC50 means the concentration needed to halve the response being measured. Consider `NS(=O)(=O)OC[C@H]1C[C@@H](Nc2ncncc2C(=O)c2cn(Cc3cccc(C(F)(F)F)c3)c3ccccc23)[C@H](O)[C@@H]1O`, for which the figures for the IC50 in test [1] and in test [2] were 3180 nM and 12 nM, respectively. Also, the values for the CC50 in test [3] and in test [4] were 1240 nM and 1280 nM, respectively.
Consider `Cc1cccc(Cn2cc(C(=O)c3cncnc3N[C@@H]3C[C@H](COS(N)(=O)=O)[C@@H](O)[C@H]3O)c3cc(F)ccc32)c1`, for which the IC50 in test [1] was determined as 680 nM.
Take `COc1cccc(Cn2cc(C(=O)c3cncnc3N[C@@H]3C[C@H](COS(N)(=O)=O)[C@@H](O)[C@H]3O)c3ccccc32)c1`: the IC50 in test [1] came to 40 nM; in test [2], 22 nM. Besides, the CC50 in test [3] is 431 nM; in test [4], under 30 nM.
For the molecule `N#Cc1cccc(Cn2cc(C(=O)c3cncnc3N[C@@H]3C[C@H](COS(N)(=O)=O)[C@@H](O)[C@H]3O)c3ccccc32)c1`, the CC50 in test [3] was found to be 15100 nM; in test [4], 13200 nM.
For `NS(=O)(=O)OC[C@H]1C[C@@H](Nc2ncncc2C(=O)c2cn(Cc3ccc(C(F)(F)F)o3)c3ccccc23)[C@H](O)[C@@H]1O`, the half-maximal inhibitory concentration (IC50) in test [1] stood at 1290 nM. Besides, the CC50 in test [3] turned out to be 2010 nM; in test [4], 813 nM.
As for `NS(=O)(=O)OC[C@H]1C[C@@H](Nc2ncncc2C(=O)c2cn(Cc3cccc(F)c3)c3ccccc23)[C@H](O)[C@@H]1O`, the 50% inhibitory concentration (IC50) in test [1] stood at 1650 nM; in test [2], 91 nM. Also, the CC50 was 456 nM in test [3] and under 30 nM in test [4].
For `Cc1c(Cn2cc(C(=O)c3cncnc3N[C@@H]3C[C@H](COS(N)(=O)=O)[C@@H](O)[C@H]3O)c3cc(F)ccc32)cccc1C(F)(F)F`, the results for the concentration for half-maximal inhibition (IC50) in test [1] and in test [2] were 990 nM and 112 nM, respectively.
Take `NS(=O)(=O)OC[C@H]1C[C@@H](Nc2ncncc2C(=O)c2cn(Cc3ccccc3F)c3ccccc23)[C@H](O)[C@@H]1O`: the IC50 in test [1] was 2880 nM. The values for the CC50 in test [3] and in test [4] were 3120 nM and 1000 nM, respectively.
Turning to `Cc1cc(Cn2cc(C(=O)c3cncnc3N[C@@H]3C[C@H](COS(N)(=O)=O)[C@@H](O)[C@H]3O)c3cc(F)ccc32)ccc1F`, the IC50 in test [1] was 1720 nM; in test [2] it was 15 nM.
Regarding `NS(=O)(=O)OC[C@H]1C[C@@H](Nc2ncncc2C(=O)c2cn(Cc3cc(Cl)ccc3Cl)c3ccccc23)[C@H](O)[C@@H]1O`, in test [2], it took 37 nM to reach half-maximal inhibition (IC50). For the same molecule, the CC50 in test [3] amounted to 643 nM; in test [4], 662 nM.
For `NS(=O)(=O)OC[C@H]1C[C@@H](Nc2ncncc2C(=O)c2nn(Cc3cccc(Br)c3)c3ccccc23)[C@H](O)[C@@H]1O`, in test [1], the IC50 was determined as 1700 nM.
`NS(=O)(=O)OC[C@H]1C[C@@H](Nc2ncncc2C(=O)c2cn(Cc3cccc(Cl)c3)c3ccccc23)[C@H](O)[C@@H]1O`: the IC50 was determined as 460 nM in test [1] and 19 nM in test [2]. For the same molecule, the CC50 worked out at 790 nM in test [3] and 600 nM in test [4].
As for `NS(=O)(=O)OC[C@H]1C[C@@H](Nc2ncncc2C(=O)c2cn(Cc3cccc(Br)c3)c3ncccc23)[C@H](O)[C@@H]1O`, in test [1], the IC50 stood at 661 nM. The figures for the CC50 in test [3] and in test [4] were 2010 nM and 813 nM, respectively.
`NS(=O)(=O)OC[C@H]1C[C@@H](Nc2ncncc2C(=O)c2cn(Cc3ccccc3)c3ccccc23)C[C@@H]1O`: the values for the half-maximal inhibitory concentration (IC50) in test [1] and in test [2] were 560 nM and 0.6 nM, respectively.
With `NS(=O)(=O)OC[C@H]1C[C@@H](Nc2ncncc2C(=O)c2cn(Cc3ccc(F)c(F)c3)c3ccccc23)[C@H](O)[C@@H]1O`, the IC50 was found to be 3480 nM in test [1] and 20 nM in test [2]. The CC50 in test [3] worked out at 2280 nM; in test [4], 1810 nM.
Turning to `NS(=O)(=O)OC[C@H]1C[C@@H](Nc2ncncc2C(=O)c2cn(CC3CCCCC3)c3ccccc23)[C@H](O)[C@@H]1O`, the 50% inhibitory concentration (IC50) in test [1] turned out to be 1650 nM.
In test [2], `NS(=O)(=O)OC[C@H]1C[C@@H](Nc2ncncc2C(=O)c2cn(Cc3ccc4ccccc4c3)c3ccc(F)cc23)[C@H](O)[C@@H]1O` had a half-inhibitory concentration (IC50) of 141 nM.
The molecule `NS(=O)(=O)OC[C@H]1C[C@@H](Nc2ncncc2C(=O)c2cn(Cc3ccc(S(F)(F)(F)(F)F)cc3)c3ccc(F)cc23)[C@H](O)[C@@H]1O` registered an IC50 in test [2] of 10 nM.
Consider `NS(=O)(=O)OC[C@H]1C[C@@H](Nc2ncncc2C(=O)c2cn(Cc3cccc(Br)c3)c3ccccc23)[C@H](O)[C@@H]1O`, for which the IC50 in test [1] worked out at 100 nM. Further, the CC50 in test [3] was 934 nM; in test [4] it was 223 nM.
`NS(=O)(=O)OC[C@H]1C[C@@H](Nc2ncncc2C(=O)c2cn(Cc3ccccc3)c3ccccc23)[C@H](O)[C@@H]1O`: the figures for the IC50 in test [1] and in test [2] were 120 nM and 5 nM, respectively. For the same molecule, the CC50 in test [3] was 228 nM; in test [4], under 30 nM.
With `NS(=O)(=O)OC[C@H]1C[C@@H](Nc2ncncc2C(=O)c2cn(Cc3cc(C(F)(F)F)cc(C(F)(F)F)c3)c3ccccc23)[C@H](O)[C@@H]1O`, the results for the CC50 in test [3] and in test [4] were 4120 nM and 2780 nM, respectively.
As to `NS(=O)(=O)OC[C@H]1C[C@@H](Nc2ncncc2C(=O)c2cn(Cc3cccc(N4CCOCC4)c3)c3ccc(F)cc23)[C@H](O)[C@@H]1O`, the results for the IC50 in test [1] and in test [2] were over 10000 nM and 13 nM, respectively.
In the case of `NS(=O)(=O)OC[C@H]1C[C@@H](Nc2ncncc2C(=O)c2cn(Cc3cccc(Br)c3)c3ccc(F)cc23)[C@H](O)[C@@H]1O`, the IC50 came out at 530 nM in test [1] and 0.9 nM in test [2]. Moreover, the CC50 was 1010 nM in test [3] and 896 nM in test [4].
In the case of `NS(=O)(=O)OC[C@H]1C[C@@H](Nc2ncncc2C(=O)c2cn(Cc3ccc(F)cc3F)c3ccccc23)[C@H](O)[C@@H]1O`, the IC50 in test [1] was 30 nM; in test [2], 8 nM. For the same molecule, the CC50 in test [3] came out at 1480 nM; in test [4], 1560 nM.
In the case of `Cc1cccc(Cn2cc(C(=O)c3cncnc3N[C@@H]3C[C@H](COS(N)(=O)=O)[C@@H](O)[C@H]3O)c3ccccc32)n1`, in test [1], the IC50 came to 2210 nM. The CC50 was 413 nM in test [3] and 55.3 nM in test [4].
For the molecule `NS(=O)(=O)OC[C@H]1C[C@@H](Nc2ncncc2C(=O)c2cn(Cc3ccccc3)c3ccccc23)[C@@H](F)[C@@H]1O`, in test [1], the IC50 was 1840 nM.
Consider `NS(=O)(=O)OC[C@H]1C[C@@H](Nc2ncncc2C(=O)c2cn(Cc3ccc(F)c(Cl)c3)c3ccccc23)[C@H](O)[C@@H]1O`, for which, in test [1], the 50% inhibitory concentration (IC50) is 1600 nM. For the same molecule, the CC50 worked out at 1800 nM in test [3] and 1430 nM in test [4].
In the case of `NS(=O)(=O)OC[C@H]1C[C@@H](Nc2ncncc2C(=O)c2cn(Cc3cccc(I)c3)c3ccccc23)[C@H](O)[C@@H]1O`, the half-inhibitory concentration (IC50) in test [1] amounted to 470 nM. Also, the CC50 in test [3] was found to be 587 nM; in test [4], 163 nM.
As to `C/C=C/Cn1cc(C(=O)c2cncnc2NC2C[C@H](COS(N)(=O)=O)[C@@H](O)[C@H]2O)c2ccccc21` (single isomer, unassigned), the 50% inhibitory concentration (IC50) in test [1] is 1860 nM.
